Assay results taken from PubChem BioAssay AID651650 (Sanford-Burnham Center for Chemical Genomics, 2012).
Calls of active or inactive are those of the source.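 How the source made its calls: active means mean IC50 below 20 µM in each of the two panels, so potent in both; inactive means the rest.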

Biological target: Neuropilin-1 (Homo sapiens) (UniProt O14786)
Test: NRP-1 b1b2 CendR peptide binding inhibitors, dose response, biochemical, FP and AlphaScreen panel (AID 651650)
Conditions: NRP-1 b1b2 / RPARPAR peptide binding, FP or AlphaScreen
[1] = AlphaScreen, run 1, individual panel run IC50
[2] = FP, run 1, individual panel run IC50
[3] = FP, run 2, individual panel run IC50

Sequence of Neuropilin-1 (Homo sapiens) (O14786 whole entry, looked up): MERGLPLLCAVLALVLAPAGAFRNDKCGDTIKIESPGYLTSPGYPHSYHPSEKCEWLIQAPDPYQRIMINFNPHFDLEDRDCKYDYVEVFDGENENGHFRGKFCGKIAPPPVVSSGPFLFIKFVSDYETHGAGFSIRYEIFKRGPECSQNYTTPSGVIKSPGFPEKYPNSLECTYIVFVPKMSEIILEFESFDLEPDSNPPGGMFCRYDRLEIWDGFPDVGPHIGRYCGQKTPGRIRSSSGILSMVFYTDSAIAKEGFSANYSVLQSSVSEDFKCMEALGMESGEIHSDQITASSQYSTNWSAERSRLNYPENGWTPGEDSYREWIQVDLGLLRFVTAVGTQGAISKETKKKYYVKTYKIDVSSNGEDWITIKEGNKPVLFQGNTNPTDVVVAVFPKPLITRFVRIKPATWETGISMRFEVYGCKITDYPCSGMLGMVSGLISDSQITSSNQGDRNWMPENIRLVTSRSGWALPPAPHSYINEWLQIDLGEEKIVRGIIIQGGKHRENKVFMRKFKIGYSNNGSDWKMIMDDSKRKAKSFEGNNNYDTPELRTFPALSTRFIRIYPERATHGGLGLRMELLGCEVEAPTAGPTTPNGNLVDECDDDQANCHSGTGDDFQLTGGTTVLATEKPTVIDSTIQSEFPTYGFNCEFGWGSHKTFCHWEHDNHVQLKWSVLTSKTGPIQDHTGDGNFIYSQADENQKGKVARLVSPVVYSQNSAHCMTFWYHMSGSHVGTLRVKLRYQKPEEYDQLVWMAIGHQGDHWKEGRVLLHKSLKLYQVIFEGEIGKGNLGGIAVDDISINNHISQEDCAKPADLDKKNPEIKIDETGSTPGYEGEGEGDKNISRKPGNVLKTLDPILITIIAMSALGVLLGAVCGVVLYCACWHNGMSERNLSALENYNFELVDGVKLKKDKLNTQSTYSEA

Compound	IC50 (AlphaScreen, mean of runs)	IC50 [1] [µM]	IC50 (FP, mean of runs)	IC50 [2] [µM]	IC50 [3] [µM]
OCCCc1n[nH]c(=S)n1-c1ccccc1	> 100 µM (inactive)	> 100	> 95 µM (inactive)	> 95	> 95
OCC[C@H]1C[C@H](O)[C@@H](O)[C@]2(CCCCO2)O1	> 100 µM (inactive)	> 100	> 95 µM (inactive)	> 95	> 95
NC(=O)C1CCN(c2nc(-c3ccc4occc(=O)c4c3)cs2)CC1	> 100 µM (inactive)	> 100	> 95 µM (inactive)	> 95	> 95
COCCNC(=S)N(CCc1c(C)[nH]c2ccc(F)cc12)Cc1cccs1	> 100 µM (inactive)	> 100	> 95 µM (inactive)	> 95	> 95
CCC1CCCCN1CCCNC(=O)C1CCCN(S(=O)(=O)N2CC(C)CC(C)C2)C1 (stereo not given)	6.29 µM	6.29	> 95 µM (inactive)	> 95	> 95
CCN(Cc1ccncc1)C(=O)c1cc(COc2ccc(F)cc2F)on1	> 100 µM (inactive)	> 100	> 95 µM (inactive)	> 95	> 95
CCOC(=O)N1CCN(C(=O)c2cc3n(n2)C(C(F)(F)F)CC(c2ccc4c(c2)OCO4)N3)CC1 (stereo not given)	> 100 µM (inactive)	> 100	> 95 µM (inactive)	> 95	> 95
COC(=O)C1N[C@@H]([C@@H](NC(=O)COc2ccccc2)C(=O)NCc2ccccc2)SC1(C)C (stereo not given in full)	> 100 µM (inactive)	> 100	> 95 µM (inactive)	> 95	> 95
CSc1nc2ccccc2c(=O)n1C1CCOC(C)(C)C1 (stereo not given)	> 100 µM (inactive)	> 100	> 95 µM (inactive)	> 95	> 95
CC(C)c1ccc(S(=O)(=O)N2CCN(C(=O)CN3C(=O)c4ccccc4C3=O)CC2)cc1	> 100 µM (inactive)	> 100	> 95 µM (inactive)	> 95	> 95
NS(=O)(=O)c1ccc(CNC(=S)NCc2ccc(F)cc2)cc1	> 100 µM (inactive)	> 100	> 95 µM (inactive)	> 95	> 95
O=C(CSc1nc2ccc(Cl)cc2[nH]1)NCCc1ccccc1	> 100 µM (inactive)	> 100	> 95 µM (inactive)	> 95	> 95
Cn1c(=O)c2[nH]c(COc3ccccc3)nc2n(C)c1=O	> 100 µM (inactive)	> 100	> 95 µM (inactive)	> 95	> 95
COc1ccc(Nc2nc(-c3cccnc3)nc3ccccc23)cn1	inactive	54.7	> 95 µM (inactive)	> 95	> 95
CC(=O)NC(c1cccc(F)c1)c1nc(-c2cccc(C(F)(F)F)c2)cs1 (stereo not given)	> 100 µM (inactive)	> 100	> 95 µM (inactive)	> 95	> 95
O=C(NCCOC(=O)c1ccccc1)c1ccccc1	inactive	45.3	> 95 µM (inactive)	> 95	> 95
COc1ccc(Cl)cc1S(=O)(=O)N1CCN(CC(=O)C(C)(C)C)CC1	> 100 µM (inactive)	> 100	> 95 µM (inactive)	> 95	> 95
OCCNc1ncnc2ccc(Br)cc12	inactive	45.2	> 95 µM (inactive)	> 95	> 95
O=C(c1ccc(-c2cccc(Cl)c2)o1)N1CCN(c2ccc([N+](=O)[O-])cc2)CC1	> 100 µM (inactive)	> 100	inactive	> 95	39.5
CNc1nc(-c2ccc3c(c2)CCN3C(=O)c2ccccc2F)cs1	> 100 µM (inactive)	> 100	> 95 µM (inactive)	> 95	> 95
CNC(=O)Nc1ccccc1C(=O)NCc1ccccc1	> 100 µM (inactive)	> 100	> 95 µM (inactive)	> 95	> 95
CCCS(=O)(=O)N1CCC(Cc2ccc(OC)cc2)(C(=O)OCC)CC1	> 100 µM (inactive)	> 100	> 95 µM (inactive)	> 95	> 95
NS(=O)(=O)c1cccnc1Nc1cccc(Cl)c1Cl	> 100 µM (inactive)	> 100	> 95 µM (inactive)	> 95	> 95

Compound	IC50 (AlphaScreen, mean of runs)	IC50 [1] [µM]	IC50 (FP, mean of runs)	IC50 [2] [µM]	IC50 [3] [µM]
c1ccc2c(CNc3ccc(CNc4ncn[nH]4)cc3)cccc2c1	> 100 µM (inactive)	> 100	> 95 µM (inactive)	> 95	> 95
Cc1ccc(Cn2c(C(C)Nc3nc(-c4ccc(Cl)c([N+](=O)[O-])c4)cs3)nc3cc(C(F)(F)F)ccc32)cc1 (stereo not given)	> 100 µM (inactive)	> 100	> 95 µM (inactive)	> 95	> 95
Cc1ccc(N(C(=O)c2ccc(CN3CCOCC3)o2)C(C(=O)NCCC(C)C)c2cccs2)c(C)c1 (stereo not given)	> 100 µM (inactive)	> 100	> 95 µM (inactive)	> 95	> 95
CCOC(=O)C[C@H]1c2cc(C(F)(F)F)ccc2S(=O)(=O)N1Cc1ccccc1	> 100 µM (inactive)	> 100	> 95 µM (inactive)	> 95	> 95
CN(Cc1cnn(C)c1)C(=O)c1cc2ccccc2oc1=O	> 100 µM (inactive)	> 100	> 95 µM (inactive)	> 95	> 95
Cc1ccc(-n2c(-c3ccco3)nc3c(cnn3-c3ccc(C)cc3)c2=O)cc1	> 100 µM (inactive)	> 100	inactive	39.7	36.3
Cc1ccc(Cl)cc1N1CCN(C(=O)c2cccc3c(=O)c(C)c(-c4ccccc4)oc23)CC1	> 100 µM (inactive)	> 100	inactive	26.6	> 95
CCCCOC(=O)c1ccc(NS(=O)(=O)c2cc(-c3nnnn3CC)ccc2OC)cc1	> 100 µM (inactive)	> 100	> 95 µM (inactive)	> 95	> 95
CC(Oc1ccccc1)C(=O)NC1=NCCS1 (stereo not given)	> 100 µM (inactive)	> 100	> 95 µM (inactive)	> 95	> 95
CCCCOc1ccc(S(=O)(=O)N2CCN(C)CC2)cc1	inactive	76.4	> 95 µM (inactive)	> 95	> 95
O=[N+]([O-])c1cc(-c2csc(NCCc3nc4cc(C(F)(F)F)ccc4n3CCCO)n2)ccc1Cl	> 100 µM (inactive)	> 100	> 95 µM (inactive)	> 95	> 95
Cc1ccc(C(=O)C2CN3CCC2CC3)cc1 (stereo not given)	> 100 µM (inactive)	> 100	> 95 µM (inactive)	> 95	> 95
Cc1cc(C)n2c(Nc3ccc4c(c3)OCCO4)c(-c3ccccn3)nc2n1	> 100 µM (inactive)	> 100	> 95 µM (inactive)	> 95	> 95
CC(=O)Nc1ccccc1OCC(=O)N(Cc1ccccc1)C(C)C	> 100 µM (inactive)	> 100	> 95 µM (inactive)	> 95	> 95
Cc1ccc(NC(=O)COc2ncnc3c(Cl)cc(Cl)cc23)cc1[N+](=O)[O-]	> 100 µM (inactive)	> 100	> 95 µM (inactive)	> 95	> 95
O=c1[nH]c(Nc2ccccn2)cc2ccccc12	19.5 µM	19.6	> 95 µM (inactive)	> 95	> 95
c1cc(CNc2ccc3c(c2)OCO3)ccn1	> 100 µM (inactive)	> 100	> 95 µM (inactive)	> 95	> 95
CCn1c(N)c(C(=O)NCc2cccnc2)sc1=S	13 µM	13	inactive	> 95	30.1
C=CCN(CC=C)C(=O)C1CC(=O)N(c2ccc(Br)cc2)C1 (stereo not given)	> 100 µM (inactive)	> 100	> 95 µM (inactive)	> 95	> 95
Cc1cnc(C(=O)OCC(=O)Nc2sc3c(c2C#N)CCC3)cn1	> 100 µM (inactive)	> 100	> 95 µM (inactive)	> 95	> 95
O=C(CCCNC(=O)/C(=C\c1ccc(F)cc1)NC(=O)c1ccccc1)OCc1ccccc1	> 100 µM (inactive)	> 100	> 95 µM (inactive)	> 95	> 95
CCn1c(=O)c(C(=O)NCCNCCO)c(O)c2ccccc21	> 100 µM (inactive)	> 100	> 95 µM (inactive)	> 95	> 95
